Consider 3 compounds from patent US9107879B1, “Methods of increasing the cytotoxicity of chemotherapeutic agents with multisubstrate inhibitors of histone, protein-lys, polyamine acetylation, and polyamine metabolism” (Vanderbilt University, priority 2010, dated 2015).

One data set has as its system H358 cells. Briefly: trypan blue exclusion viability assay. Format: cell-based. Particulars: human. The method, then:
Cells were either labeled immediately before treatment (starting DNA synthesis rate), or subjected to the indicated treatments and then pulsed on successive days until day 4. DNA synthesis is represented as the percent of starting DNA synthesis rate. Viability was determined for each treatment condition 24 hours post-start of treatment by the trypan blue exclusion assay, with percentages of viable cells indicated to the right of the graph. […]
Cell viability, measured 18 hours after the start of each treatment by the trypan blue exclusion assay, a measure of cellular membrane integrity, confirmed that single agent treatment with either 1a or camptothecin had essentially no effect on cell viability (≧96% viability for untreated cells or single agent-treated cells).
The present inventors used 96-well viability assays as described in Saadatmandi et al (Cancer Gene Therapy (2002) 9:930-9) to examine the effect of 1a on DNA synthesis in H358 cells, as well as the combined effects of 1a and chemotherapeutic agents. […] Following the 6-hour labeling, cells were harvested and incorporation of [^3H]-thymidine was determined by scintillation counting. […] We measured cell viability 24 hours after the start of each treatment by the trypan blue exclusions assay, a measure of cellular membrane breakdown.

In the next data set the test system is H358 lung cancer cells. Briefly: [3H]-thymidine incorporation DNA synthesis assay. The format is cell-based. Conditions: Homo sapiens, NCI-H358; Example 1: 50 μM 1a (continuous) + 5 nM camptothecin (24 h); 48 hours post treatment; read-out: DNA synthesis rate, % of control rate. Background: Incorporation of labelled thymidine or its analogues reports DNA synthesis.

The test system of data set [1] is endogenous HATs associated with solubilized chromatin. Particulars: literature (Bandyopadhyay et al 2009; Parello et al. 1990); cited from earlier work.
A further data set concerns γ-H2A.X in H358 cells. Briefly: double strand break / gamma-H2A.X Western and co-immunoprecipitation. The format is cell-based. Particulars: 18 hours post-start; 1a 50 μM, 5FU 2 μM, cisplatin 2 μM, camptothecin 5 nM. The method, then: Also shown are controls for no treatment (“c” minus 1a) or treatment with 1a only (“c” plus 1a). Each lane represents 60 μg protein. […] Each lane represents 60 μg protein.
To measure DSB repair, cells were incubated for 1 hour with 10 μM camptothecin to induce DSBs, followed by incubation in the presence or absence of 50 μM 1a. At fixed times, histones were prepared by extraction in 0.2M H2SO4 as described previously and 50 μg extract was analyzed by 12% SDS-PAGE followed Western analysis as described previously, using rabbit polyclonal anti-γ-H2A.X [phosphor ser 139] (Novus Biologicals, Littleton, Colo.) or anti-H3 (Upstate Biotechnology, Inc, Lake Placid, N.Y.). Band intensities were quantitated digitally. To study acetylation of γ-H2A.X, we carried out co-immunoprecipitation analysis using 50 μg extract protein in immunoprecipitation buffer (10 mM sodium phosphate pH 7, 0.15 M NaCl, 0.1% SDS, 1% NP40, 1% sodium deoxycholate, aprotinin, 1 mM PMSF, complete protease inhibitors (Roche) using immobilized anti-acetyl-lysine (Millipore, Temecula, Calif.) in the immunoprecipitation step. The immunoprecipitated material was then analyzed as for Western analysis using anti γ-H2A.X.
Double strand breaks (DSBs) can be formed by a variety of DNA damaging agents, including camptothecin, cisplatin, 5FU, and UVC radiation (Avemann K, et al., 1988, Mol Cell Biol, 8: 3026-34; Bogdanov K V, et al. 1997, Br J Haematol, 98:869-72; Pavon M A, et al., Int J Cancer, 2008, 123:1068-79) implying that DSB repair may play a role in reducing their cellular toxicity. To examine how 1a treatment affects DSB repair in H358 cells we made use of the fact that the histone variant, H2A.X becomes phosphorylated at sites of double strand breaks (denoted γ-H2A.X), and can be detected by immunoblot analysis of acid extracted cells (Rogaku E P, et al., 1999, J Cell Biol, 146:905-16). […] Total H3 levels and H2A.X levels (control) are unaffected by these treatments (FIG. 4B). […]

For data set [2], the system named is DU145 prostate cancer cells. The format is cell-based. Conditions: camptothecin 5 nM; 2a 10 μM. The procedure:
Cells were plated in 96-well plates at 2000 cells per well and treated with the indicated doses of spd-3a. Cell viability was measured by the MTS assay 3 days later.

On to `CC(C)(COP(=O)(O)OP(=O)(O)OC[C@H]1O[C@@H](n2cnc3c(N)ncnc32)[C@H](O)[C@@H]1OP(=O)(O)O)[C@@H](O)C(=O)NCCC(=O)NCCSCC(=O)NCCCNCCCCN` [1a, spermidine[N1]-CoA], for which the “cell viability, trypan blue exclusion” value with H358 cells (18 h) and with H358 cells (24 h) was at least 96% in each case. The activity at 50 µM in the data set with H358 lung cancer cells was around 10%.

Turning to `CC(=O)NCCSCC(=O)NCCCNCCCCN` [3a], the “inhibitory activity against endogenous HAT” value in data set [1] is listed as “lower inhibitory effect than Spd-2a”.

In the case of `CC[C@@]1(O)C(=O)OCc2c1cc1n(c2=O)Cc2cc3ccccc3nc2-1` [camptothecin], the “γ-H2A.X level, single agent” value in the data set on γ-H2A.X in H358 cells is reported as “weakly detectable”. Moreover, the “effect on cell viability, single agent” value in data set [2] is “minimal effects”.
